Laboratory results from patent publication US10765659B2, “Potentiated tulathromycin” (SEPTEOS, priority 2016, dated 2020).
Read-outs that look alike come from different tables or passages of the source.

Experiments:
strain 13120 (E. coli) = assay: Growth test / bactericidal action test in liquid medium; assay type: cell-based; conditions: strain 13120, DMSO, tulathromycin at 4 times its MIC, cineole at mass ratio 1:1 or 1 mg/L
Experimental: (§1) Growth tests are performed in liquid medium with prior dispersion of the antibiotic booster in a suitable solvent (here DMSO).
(§2) Bacterial growth kinetics are measured in the presence of tulathromycin (at a concentration of 4 or 16 times its MIC); tulathromycin (at a concentration of 4 or 16 times its MIC) and 1,8-cineole at a mass ratio of 1:1; and tulathromycin (at a concentration of 4 or 16 times its MIC) and 1 mg of 1,8-cineole.
1 Growth Test on Strain 13120 (Genus E. coli) […]
diamond: control (bacteria alone in DMSO) square: tulathromycin diluted in DMSO at a concentration of 4 times its MIC triangle: tulathromycin and cineole, diluted in DMSO, tulathromycin is at a concentration of 4 times its MIC, the tulathromycin/cineole mass ratio is 1:1 Cross (x): tulathromycin and cineole, diluted in DMSO, tulathromycin is at a concentration of 4 times its MIC, cineole at 1 mg/L

[1] = tested on: strain 13043 (Actinobacillus pleuropneumoniae); assay: as above; assay type: cell-based; conditions: strain 13043, DMSO, tulathromycin at 16 times its MIC, cineole at 1 mg/L
Experimental: as §1, §2
2 Growth Test on Strain 13043 (Actinobactllus Pleuropneumonlae) […]
diamond: control (bacteria alone in DMSO) square: tulathromycin diluted in DMSO at a concentration of 16 times its MIC triangle: tulathromycin and cineole, diluted in DMSO, tulathromycin is at a concentration of 16 times its MIC, cineole at 1 mg/L
Cross (x): cineole control, at 1 mg/L

Staphylococcus [2] = assay: Resistance test: resistant mutant colonies on Mueller Hinton plate; assay type: cell-based
Experimental: One hundred microlitres of a Mueller Hinton broth culture of the strain to be studied (heavy inoculum>10^10 CFU/mL) is spread on a Mueller Hinton plate containing an oil concentration equal to 0.5/1/2/4 times the MIC of tulathromycin. After 48 hours of incubation, the presence or absence of colonies likely to be resistant mutants are observed.

[3] = tested on: microorganisms grown in planktonic and biofilm cultures; conditions: Hendry et al., J Antimicrob Chemother 2009; cited from earlier work
[4] = tested on: Actinobacillus pleuropneumoniae; assay: MIC measurement in solid agar medium (CLSI); assay type: cell-based
Experimental: (§3) “MIC” means “minimal inhibitory concentration”, which is the lowest concentration of substance at which microbial growth is no longer observed after 18 to 24 hours of contact under conditions favourable to microbial growth.
(§4) The minimum inhibitory concentration measurement tests are performed in a solid agar medium according to current international standards (CLSI standards M7-A9 January 12): dispersion of the compounds to be tested in Mueller Hinton agar. An adaptation relating to the hydrophobicity of the compounds and compositions is however necessary to disperse them in the medium: the compounds are diluted in a solvent. The compounds and compositions incorporated in the agar may be first diluted in one or more solvents (Tween® 80 diluted in water, Tween@ 80 diluted in propylene, DMSO diluted in water). The medium may be cation-adjusted. The strains are deposited on the surface of the agar with a Steers apparatus. In the examples, various methods for dissolving the products are tested in parallel to circumvent problems related to the water/solvent distribution coefficient of the molecules (antimicrobial and potentiator) as the bacteria grow only in the aqueous phase. The technical constraint will not affect the in vivo tests. The same dilution methods can be used in liquid media (microplates and tubes). The same methodology is used with fungi.
(§5) MIC measurement: The minimum inhibitory concentration measurement tests are performed in solid agar medium according to current international standards (CLSI standards), according to the protocol defined above. The compounds and compositions incorporated in the agar may be first diluted in one or more solvents (ethanol, or DMSO diluted in water).

E. coli = assay: MIC measurement in solid agar medium (CLSI); assay type: cell-based
Experimental: as §3, §4, §5

Enterococcus = assay: MIC measurement in solid agar medium (CLSI); assay type: cell-based
Experimental: as §3, §4, §5

Staphylococcus [5] = assay: MIC measurement in solid agar medium (CLSI); assay type: cell-based
Experimental: as §3, §4, §5

Streptococcus suis = assay: MIC measurement in solid agar medium (CLSI); assay type: cell-based
Experimental: as §3, §4, §5

[6] = cat; cited from earlier work
[7] = rat; cited from earlier work

With `CC12CCC(CC1)C(C)(C)O2` [cineole, 1,8-cineole] the “Bacterial growth kinetics / bactericidal action (FIG. 1)” value (strain 13120 (E. coli)) was “increase the bactericidal action of tulathromycin”, the “Bacterial growth kinetics / number of bacteria (FIG. 2)” value [1] was “significantly decrease the number of bacteria” and the Development of mutants (Staphylococcus [2]; strain 8146, cineole added to tulathromycin, summary of Table 5) was “decreases the development of mutants”. For the same compound, the “MIC of cineole in the publication” value [3] was 8000 to 64000 µg/mL.

`CCCNC[C@]1(O)[C@H](C)O[C@@H](O[C@H]2[C@H](C)[C@@H](O[C@@H]3O[C@H](C)C[C@H](N(C)C)[C@H]3O)[C@](C)(O)C[C@@H](C)CN[C@H](C)[C@@H](O)[C@](C)(O)[C@@H](CC)OC(=O)[C@@H]2C)C[C@@]1(C)OC` [ATB] gave an MIC ([4]; strain 13012, DMSO) of 2 µg/mL, an MIC ([4]; strain 13012, EtOH) of 2 µg/mL and an MIC ([4]; strain 13030, DMSO) of 0.5 µg/mL. For the same compound, the MIC ([4]; strain 13030, EtOH) was 0.5 µg/mL, the MIC ([4]; strain 13032, DMSO) was 0.5 µg/mL and the MIC ([4]; strain 13032, EtOH) was 0.5 µg/mL. For the same compound, the MIC ([4]; strain 13041, DMSO) was 0.5 µg/mL, the MIC ([4]; strain 13041, EtOH) was 0.5 µg/mL and the MIC ([4]; strain 13042, DMSO) was 0.5 µg/mL. For the same compound, the MIC ([4]; strain 13042, EtOH) was 0.6 µg/mL, the MIC ([4]; strain 13043, DMSO) was 0.5 µg/mL and the MIC ([4]; strain 13043, EtOH) was 0.6 µg/mL. It also gave an MIC of tulathromycin ([4]; strain 13043, value used for growth test) of 0.5 mg, an MIC ([4]; strain 13045, DMSO) of 0.5 µg/mL and an MIC ([4]; strain 13045, EtOH) of 0.6 µg/mL. It also gave an MIC (E. coli; strain 13120, DMSO) of 2 µg/mL, an MIC (E. coli; strain 13120, EtOH) of 2.7 µg/mL and an MIC of tulathromycin (E. coli; strain 13120, value used for growth test) of 2 µg/mL. For the same compound, the MIC (E. coli; strain 13121, DMSO) was 2 µg/mL, the MIC (E. coli; strain 13121, EtOH) was 2.7 µg/mL and the MIC (E. coli; strain 13122, DMSO) was 2 µg/mL. For the same compound, the MIC (E. coli; strain 13122, EtOH) was 2 µg/mL, the MIC (E. coli; strain 13123, DMSO) was 2 µg/mL and the MIC (E. coli; strain 13123, EtOH) was 2 µg/mL. The MIC (E. coli; strain 13124, DMSO) was 1.5 µg/mL, the MIC (E. coli; strain 13124, EtOH) was 2 µg/mL and the MIC (E. coli; strain 13125, DMSO) was 1.5 µg/mL. The MIC (E. coli; strain 13125, EtOH) was 1.5 µg/mL, the MIC (E. coli; strain 13126, DMSO) was 2 µg/mL and the MIC (E. coli; strain 13126, EtOH) was 2 µg/mL. For the same compound, the MIC (E. coli; strain 13128, DMSO) was 2 µg/mL, the MIC (E. coli; strain 13128, EtOH) was 2 µg/mL and the MIC (E. coli; strain 13129, DMSO) was 2.7 µg/mL. It also gave an MIC (E. coli; strain 13129, EtOH) of 3.6 µg/mL, an MIC (E. coli; strain 13130, DMSO) of 2 µg/mL and an MIC (E. coli; strain 13130, EtOH) of 3.6 µg/mL. The MIC (E. coli; strain 13131, DMSO) was 1.5 µg/mL, the MIC (E. coli; strain 13131, EtOH) was 1.5 µg/mL and the MIC (E. coli; strain 13132, DMSO) was 2 µg/mL. For the same compound, the MIC (E. coli; strain 13132, EtOH) was 2.7 µg/mL, the MIC (E. coli; strain 13133, DMSO) was 1.5 µg/mL and the MIC (E. coli; strain 13133, EtOH) was 2 µg/mL. For the same compound, the MIC (E. coli; strain 13134, DMSO) was 1.5 µg/mL, the MIC (E. coli; strain 13134, EtOH) was 1.5 µg/mL and the MIC (E. coli; strain 13170, DMSO) was 1.5 µg/mL. It also gave an MIC (E. coli; strain 13170, EtOH) of 2 µg/mL, an MIC (E. coli; strain 13171, DMSO) of 2.7 µg/mL and an MIC (E. coli; strain 13171, EtOH) of 3.6 µg/mL. For the same compound, the MIC (E. coli; strain 13172, DMSO) was 1.5 µg/mL, the MIC (E. coli; strain 13172, EtOH) was 1.5 µg/mL and the MIC (E. coli; strain 13173, DMSO) was 1.5 µg/mL. For the same compound, the MIC (E. coli; strain 13173, EtOH) was 1.5 µg/mL, the MIC (E. coli; strain 13174, DMSO) was 2 µg/mL and the MIC (E. coli; strain 13174, EtOH) was 2 µg/mL. For the same compound, the MIC (E. coli; strain 13175, DMSO) was 2 µg/mL, the MIC (E. coli; strain 13175, EtOH) was 3.6 µg/mL and the MIC (E. coli; strain Q54IE2, EtOH) was 0.8 µg/mL. It also gave an MIC (E. coli; strain Q96CEB, EtOH) of 1.9 µg/mL, an MIC (Enterococcus; Enterococcus strain without reference (Table 3, r6), EtOH) of 0.9 µg/mL and an MIC (Enterococcus; Enterococcus strain without reference (Table 3, r7), EtOH) of 1.7 µg/mL. The MIC (Enterococcus; strain 8152, EtOH) was 1 µg/mL, the MIC (Enterococcus; strain 8153, EtOH) was 1.42 µg/mL and the MIC (Staphylococcus [5]; strain 8146, EtOH) was 0.45 µg/mL. For the same compound, the MIC (Staphylococcus [5]; strain 8147, EtOH) was 0.45 µg/mL, the MIC (Staphylococcus [5]; strain 8148, EtOH) was 0.45 µg/mL and the MIC (Staphylococcus [5]; strain 8149, EtOH) was 0.45 µg/mL. It also gave an MIC (Staphylococcus [5]; strain 8238, EtOH) of 0.45 µg/mL, an MIC (Staphylococcus [5]; strain 12216, EtOH) of 2.53 µg/mL and an MIC (Staphylococcus [5]; strain 13218, EtOH) of 1.07 µg/mL. For the same compound, the MIC (Staphylococcus [5]; strain 13221, EtOH) was 1.07 µg/mL, the MIC (Streptococcus suis; strain 13092, DMSO) was 1.1 µg/mL and the MIC (Streptococcus suis; strain 13092, EtOH) was 1.1 µg/mL. The “Bacterial growth kinetics / number of bacteria (FIG. 2)” value [1] was “bacteriostatic”, the Development of mutants (Staphylococcus [2]; S. aureus (strain 8147), summary of Table 4) was “countless mutants” and the “Colonies likely to be resistant mutants after 48 hours” value (“Colonies likely” for short) (Staphylococcus [2]; strain 8146, ethanol solvent, 0.5 times the MIC of tulathromycin) was “overgrown”. For the same compound, the “Colonies likely” value (Staphylococcus [2]; strain 8146, ethanol solvent, 1 times the MIC of tulathromycin) was “overgrown”, the “Colonies likely” value (Staphylococcus [2]; strain 8146, ethanol solvent, 2 times the MIC of tulathromycin) was “overgrown” and the “Colonies likely” value (Staphylococcus [2]; strain 8146, ethanol solvent, 4 times the MIC of tulathromycin) was 0. For the same compound, the “Colonies likely” value (Staphylococcus [2]; strain 8147, ethanol solvent, 0.5 times the MIC of tulathromycin) was “overgrown”, the “Colonies likely” value (Staphylococcus [2]; strain 8147, ethanol solvent, 1 times the MIC of tulathromycin) was “overgrown” and the “Colonies likely” value (Staphylococcus [2]; strain 8147, ethanol solvent, 2 times the MIC of tulathromycin) was “overgrown”. For the same compound, the “Colonies likely” value (Staphylococcus [2]; strain 8147, ethanol solvent, 4 times the MIC of tulathromycin) was “overgrown”.

In the case of `Cc1ccc(C(C)C)cc1O` [carvacrol], the “lowest oral lethal dose” value [6] is listed as 100 mg/kg and the “lowest oral lethal dose” value [7] is listed as 100 mg/kg.
